Measurements published in the NIST ThermoML archive (doi:10.1021/je8009336).

Experiments:
[1] = xn = mol fraction of the nth substance listed; conditions: 313.15 K, 101 kPa, Liquid; for speed of sound: Vibrating Tube Densimeter; for mass density: Vibrating tube method
[2] = refractive index (Na D-line) (dimensionless); xn = mol fraction of the nth substance listed; conditions: 313.15 K, 101 kPa, Liquid, Standard Abbe refractometry

c1ccccc1 [benzene] + C1CCCC1
x2 = 0
Conditions | mass density [kg/m3] | refractive index | speed of sound [m/s]
[1] | 857.5 | – | 1230.5
[2] | – | 1.48777 | –

c1ccccc1 [benzene] + C1CCCCC1
x2 = 0
Conditions | mass density [kg/m3] | refractive index | speed of sound [m/s]
[1] | 857.5 | – | 1230.5
[2] | – | 1.48777 | –

c1ccccc1 [benzene] + CC1CCCCC1
x2 = 0
Conditions | mass density [kg/m3] | refractive index | speed of sound [m/s]
[1] | 857.5 | – | 1230.5
[2] | – | 1.48777 | –

C1CCCCC1 [cyclohexane] + CCc1ccccc1
x1 = 1
Conditions | mass density [kg/m3] | refractive index | speed of sound [m/s]
[1] | 759.6 | – | 1181.7
[2] | – | 1.41513 | –

C1CCCCC1 [cyclohexane] + Cc1ccccc1
Conditions | mass density, [1] [kg/m3] | refractive index, [2] | speed of sound, [1] [m/s]
x1 = 0.0377 | 844.4 | 1.48212 | 1236.8
x1 = 0.0967 | 838.2 | 1.47761 | 1230
x1 = 0.1945 | 828.5 | 1.47007 | 1220.1
x1 = 0.2433 | 823.4 | 1.46621 | 1215.4
x1 = 0.3985 | 808.6 | 1.45475 | 1202.3
x1 = 0.5672 | 793.4 | 1.44276 | 1191.4
x1 = 0.5965 | 790.9 | 1.44073 | 1189.8
x1 = 0.7019 | 781.9 | 1.43356 | 1185.1
x1 = 0.7958 | 774.4 | 1.4276 | 1182.2
x1 = 0.9011 | 766.5 | 1.42097 | 1181.2
x1 = 0.95 | 763 | 1.41807 | 1180.9
x1 = 1 | 759.6 | 1.41513 | 1181.7

C1CCCCC1 [cyclohexane] + c1ccccc1
Conditions | mass density, [1] [kg/m3] | refractive index, [2] | speed of sound, [1] [m/s]
x1 = 0.0819 | 846.2 | 1.47958 | 1218.9
x1 = 0.1282 | 840.2 | 1.47489 | 1213.2
x1 = 0.2087 | 830.1 | 1.46761 | 1204.5
x1 = 0.2898 | 820.5 | 1.46073 | 1197
x1 = 0.4018 | 808.5 | 1.45171 | 1188.6
x1 = 0.5047 | 798.3 | 1.44414 | 1183.3
x1 = 0.6058 | 789.1 | 1.43724 | 1179.8
x1 = 0.7 | 780.9 | 1.43118 | 1177.7
x1 = 0.7989 | 773.2 | 1.42538 | 1177.3
x1 = 0.9059 | 765.7 | 1.41966 | 1178.6
x1 = 0.9505 | 762.7 | 1.41753 | 1179.7
x1 = 1 | 759.6 | 1.41513 | 1181.7

C1CCCC1 [cyclopentane] + CCc1ccccc1
Conditions | mass density, [1] [kg/m3] | refractive index, [2] | speed of sound, [1] [m/s]
x1 = 0.0393 | 845.5 | 1.48234 | 1251.9
x1 = 0.083 | 841.2 | 1.47928 | 1246.4
x1 = 0.1874 | 830.5 | 1.4714 | 1232.9
x1 = 0.2847 | 820 | 1.46405 | 1219.9
x1 = 0.3689 | 810.5 | 1.45715 | 1209.3
x1 = 0.541 | 789.9 | 1.44226 | 1186.8
x1 = 0.6281 | 778.7 | 1.43421 | 1175.5
x1 = 0.687 | 770.9 | 1.42853 | 1168
x1 = 0.7988 | 755.3 | 1.41702 | 1154
x1 = 0.898 | 740.8 | 1.40651 | 1141.9
x1 = 0.9475 | 733.2 | 1.40072 | 1135.9
x1 = 1 | 725 | 1.39456 | 1130

C1CCCC1 [cyclopentane] + Cc1ccccc1
Conditions | mass density, [1] [kg/m3] | refractive index, [2] | speed of sound, [1] [m/s]
x1 = 0.0418 | 843.6 | 1.48201 | 1235.6
x1 = 0.0924 | 838 | 1.47801 | 1228.7
x1 = 0.1907 | 826.8 | 1.46979 | 1215.8
x1 = 0.2717 | 817.3 | 1.46313 | 1205.2
x1 = 0.3579 | 807 | 1.45562 | 1194.8
x1 = 0.4944 | 790.4 | 1.44336 | 1178.6
x1 = 0.5862 | 778.9 | 1.43503 | 1168.4
x1 = 0.6895 | 765.8 | 1.42526 | 1157.4
x1 = 0.7951 | 752.2 | 1.41512 | 1147.3
x1 = 0.8958 | 738.9 | 1.40537 | 1138.3
x1 = 0.9456 | 732.3 | 1.40037 | 1134.2
x1 = 1 | 725 | 1.39456 | 1130
